Results reported in US20180244629A1, “Compounds And Compositions For The Treatment Of Cancer” (The Broad Institute, Inc., priority 2013, published 2018).
Like-named read-outs stand apart in the source and are kept apart here.

Columns and labels:
COLO741 cells = assay: COLO741 Assay (Cell Titer Glo viability); type: cell-based
Protocol: (§1) C0L0741 Assay Protocol. Day 0: C0L0741 cells (ECACC, C0L0741 93052621) are grown to 95% confluence in RPMI, 10% FBS/Pen/Strep/L-Glutamine. Day 1: Plate cells (1500 per well) in 40 μl culturing media using Corning 384-well plates (3570), incubate in standard TC conditions (5% CO2, 95% humidity, 37° C.) for 24 h. Day 2: Dilute each concentration of a half-log serial dilution of compound (1 mM-100 nM) 1:200 in culturing media and add […] (50 μl total volume) of that dilution to designated wells (8 replicates per concentration). The final dilution will be 1000×([…]). Day 4: Remove plate from incubator to cool for 20 minutes to room temperature. Add 40 μl of a 25% Promega Cell Titer Glo solution (diluted 1:3 with room temperature PBS) with Thermo combi or multichannel and incubate for 10 minutes. Read on Perkin-Elmer EnVision with US LUM settings for 0.1 second per well.
(§2) Compounds as shown were tested against various cells lines in vitro according to the methods described herein. Cells are plated in 384-well format in a total volume of 40 μl. Indicated compound concentrations were added 24 hrs after plating the cells. After 48 hrs cell viability was determined using Cell Titer Glo® Luminescent Cell Viability Assay.

H2122 cells = assay: H2122 Assay (Cell Titer Glo viability); type: cell-based
Protocol: Selective toxicity in cell line panel. H2122 Assay Protocol Day 0: H2122 cells (ATCC, H2122 CCL-5985) are grown to 95% confluence in RPMI, 10% FBS/Pen/Strep/L-Glutamine. Day 1: Plate cells (750 per well) in 40 μl culturing media using Corning 384-well plates (3570), incubate in standard TC conditions (5% CO2, 95% humidity, 37 degrees C.) for 24 h. Day 2: Dilute each concentration of a half-log serial dilution of compound (1 mM-100 nM) 1:200 in culturing media and add 10 μl (50 μl total volume) of that dilution to designated wells (8 replicates per concentration). The final dilution will be 1000×([…]). Day 4: Remove plate from incubator to cool for 20 minutes to room temperature. Add 40 μl of a 25% Promega Cell Titer Glo solution (diluted 1:3 with room temperature PBS) with Thermo combi or multichannel and incubate for 10 minutes. Read on Perkin-Elmer EnVision with US LUM settings for 0.1 second per well.
as §2

HeLa cells = assay: HeLa Cytotoxicity Assay (Cell Titer Glo viability); type: cell-based
Protocol: HeLa Cytotoxicity Assay Protocol: Day 0: HeLa cells (ATCC, HeLa CCL-2) are grown to 95% confluence in DMEM, 10% FBS/Pen/Strep/L-Glutamine. Day 1: Plate cells (1000 per well) in 40 μl culturing media using Corning 384-well plates (3570), incubate in standard TC conditions (5% CO2, 95% humidity, 37 degrees C.) for 24 hours. Day 2: Dilute each concentration of a half-log serial dilution of compound (1 mM-100 nM) 1:200 in culturing media and add 10 μl (50 μl total volume) of that dilution to designated wells (8 replicates per concentration). The final dilution will be 1000×(1 μM-100 pM). Day 4: Remove plate from incubator to cool for 20 minutes to room temperature. Add 40 μl of a 25% Promega Cell Titer Glo solution (diluted 1:3 with room temperature PBS) with Thermo combi or multichannel and incubate for 10 minutes. Read on Perkin-Elmer EnVision with US LUM settings for 0.1 second per well.
as §2
(§3) Known PDE3 inhibitors as shown below were tested against various cells lines in vitro according to the methods described herein. Cells are plated in 384-well format in a total volume of 40 μl. Indicated compound concentrations were added 24 hrs after plating the cells. After 48 hrs cell viability was determined using Cell Titer Glo® Luminescent Cell Viability Assay.

A549 cells = assay: A549 Cytotoxicity Assay (Cell Titer Glo viability); type: cell-based
Protocol: as §1, with “A549 Cytotoxicity Assay” for “C0L0741 Assay”, “0: A549” for “0: C0L0741”, “cells (ATCC, A549 CCL-185)” for “cells (ECACC, C0L0741 93052621)”, “cells (1000” for “cells (1500”, “10 min.” for “10 minutes.”
A549 Assay Protocol. Day 0: A549 cells (ATCC) are grown in a Triple flask (NUNC) to ˜95% confluence (TrypLE Phenol Red free) and resuspended for dispensing at 25,000 cells/mL of DMEM, 10% FBS/Pen/Strep/L-Glutamine (using the TAP Compact SelecT automated cell culture system). Day 1: Plate cells at 1000 per well in 40 uL media (DMEM/10% FBS/Pen/Strep/L-Glutamine) using Corning 8867BC 384 well plates; incubate in standard TC conditions (5% CO2; 95% humidity, 37° C.) for 24 hours (Compact SelecT). Day 2: Add 100 nL compound per well at dose into 40 uL assay volume using a pin tool (CyBi Well). Pin 100 nL cytotoxic compounds, mitoxantrone (CID 4212) to positive control wells to a final concentration of 10 μM (100 nL 4 mM DMSO stock). Incubate for […] at 37° C. in Liconic incubator, 95% humidity 5% CO2. Day 4: Remove plate from incubator, cool for 15 minutes to room temperature; add 20 μL 50% Promega CellTiterGlo (diluted 1:1 with PBS, pH 7.4) with Thermo Combi. Incubate at room temperature for 5 minutes. Read plates on Perkin-Elmer EnVision with standard luminescence settings for 0.1 sec per well.
as §2, §3

PDE3 = conditions: reference value; read-out: PDE3 activity (ref); cited from earlier work
HEL = HEL cell line viability (Cell Titer Glo); type: cell-based
Protocol: as §2

[1] = Homo sapiens, COLO-741, Example 18, Mean ± SD (n = 3), read-out: Potency (EC50 nM) COLO741
[2] = Homo sapiens, NCI-H2122, Example 18, Mean ± SD (n = 3), read-out: Potency (EC50 nM) H2122
[3] = Homo sapiens, HeLa, Example 18, Mean ± SD (n = 3), read-out: Potency (EC50 nM) HeLa
[4] = Homo sapiens, A549, known PDE3 inhibitors, Mean (n = 3), read-out: Potency (EC50 nM) A549
[5] = Homo sapiens, HeLa, known PDE3 inhibitors, Mean (n = 3), read-out: Potency (EC50 nM) HeLa
[6] = 48 hrs, Cell Titer Glo, read-out: EC50 COLO741
[7] = 48 hrs, Cell Titer Glo, read-out: EC50 A549
[8] = Homo sapiens, NCI-H2122, 48 h, 48 hrs, Cell Titer Glo, read-out: EC50 H2122
[9] = Homo sapiens, HeLa, 48 h, Cell Titer Glo, read-out: EC50 HeLa
[10] = Homo sapiens, COLO-741, 48 h, 48 hrs, Cell Titer Glo, read-out: EC50 COLO741
[11] = Homo sapiens, A549, 48 hrs, Cell Titer Glo, read-out: EC50 A549
[12] = 48 hrs, Cell Titer Glo, read-out: EC50 H2122

Row | SMILES | EC50 (COLO741 cells; [1]) [nM] | EC50 (H2122 cells; [2]) [nM] | EC50 (HeLa cells; [3]) [nM] | EC50 (A549 cells; [4]) [nM] | IC50 (PDE3) [µM] | EC50 (HeLa cells; [5]) [nM] | also measured
1 | O=C1CN2Cc3c(ccc(Cl)c3Cl)NC2=N1 | 12.2 ± 0.9 | 17.4 ± 3.5 | 6.8 ± 0.9 | – | – | – | –
2 | O=C1CN2Cc3c(ccc(Cl)c3Cl)N=C2N1 [Anagrelide, reference compound] | – | – | – | > 10000 | 0.036 | 8.2 | –
3 | CN(C(=O)CCCOc1ccc2[nH]c(=O)ccc2c1)C1CCCCC1 [Cllostamide, reference compound] | – | – | – | > 10000 | 0.027 | > 10000 | –
4 | O=C1CCC(c2ccc(-n3ccnc3)cc2)=NN1 [Imazodan, reference compound] | – | – | – | > 10000 | 1.3 | 720 | –
5 | C[C@@H]1CC(=O)NN=C1c1ccc(NN=C(C#N)C#N)cc1 [Levosimendan, reference compound] | – | – | – | > 10000 | 0.0024 | > 10000 | –
6 | Cc1[nH]c(=O)c(C#N)cc1-c1ccncc1 [Millrinone, reference compound] | – | – | – | > 10000 | 0.056 | > 10000 | –
7 | CC(=O)Nc1ccc(C2=NNC(=O)C[C@H]2C)cc1 [OR-1896, reference compound] | – | – | – | – | 0.094 | > 10000 | EC50 (A549 cells; known PDE3 inhibitors, Mean (n = 3), read-out: Potency (EC50 nM) A549): > 10000 nM
8 | CN/C(=N\c1ccc(C2=NNC(=O)CC2C)cc1)NC#N (stereo not drawn) [Siguazodan, reference compound] | – | – | – | > 10000 | 0.117 | > 10000 | –
9 | COc1cc2c(cc1OC)-c1c/c(=N\c3c(C)cc(C)cc3C)n(C)c(=O)n1CC2 [Trequinsin, reference compound] | – | – | – | > 10000 | 0.00025 | > 10000 | –
10 | COc1cc(-c2ccc(=O)[nH]n2)ccc1OC(F)F [Zardaverine, reference compound] | – | – | – | > 10000 | 2.5 | 56 | –
11 | C[C@@H]1CC(=O)NN=C1c1ccc(N2CCOCC2)cc1 [drawing 138] | – | – | – | – | – | – | EC50 (HEL; 48 hrs): 0.0257 to 0.0584 µM; EC50 (COLO741 cells; [6]): 14.5 to 18.9 nM; EC50 (A549 cells; [7]): > 10000 nM; EC50 (H2122 cells; [8]): 11.8 nM; EC50 (HeLa cells; [9]): 10.3 to 12.1 nM
12 | CCN1N=C(c2ccc(N(CC)CC)cc2)[C@H](C)CC1=O [drawing 140] | – | – | – | – | – | – | EC50 (COLO741 cells; [10]): > 1000 nM; EC50 (A549 cells; [11]): > 10000 nM; EC50 (H2122 cells; [8]): > 1000 nM; EC50 (HeLa cells; [9]): > 10000 nM
13 | CCN(CC)c1ccc(C2=NNC(=O)C[C@H]2C)cc1[N+](=O)[O-] [drawing 141] | – | – | – | – | – | – | EC50 (HEL; Homo sapiens, HEL, 48 h): 0.0135 µM; EC50 (COLO741 cells; [10]): 3.97 nM; EC50 (A549 cells; [11]): > 10000 nM; EC50 (H2122 cells; [12]): 3.62 nM; EC50 (HeLa cells; [9]): 2.63 nM
14 | CCNc1ccc(C2=NNC(=O)C[C@H]2C)cc1[N+](=O)[O-] [drawing 142] | – | – | – | – | – | – | EC50 (HEL; Homo sapiens, HEL, 48 h): 0.00398 µM; EC50 (COLO741 cells; [10]): 0.76 nM; EC50 (A549 cells; [11]): > 10000 nM; EC50 (H2122 cells; [8]): 0.8 nM; EC50 (HeLa cells; [9]): 0.461 nM
15 | CCN(CC)c1ccc(C2=NNC(=O)C[C@H]2C)cc1[N+](=O)[O-] [drawing 145] | – | – | – | – | – | – | EC50 (HEL; 48 hrs): 0.0113 to 0.0162 µM; EC50 (COLO741 cells; [6]): 3.6 to 4.4 nM; EC50 (A549 cells; [7]): > 10000 nM; EC50 (H2122 cells; [12]): 7.4 nM; EC50 (HeLa cells; 48 hrs, Cell Titer Glo, read-out: EC50 HeLa): 4.05 nM
16 | C[C@@H]1CC(=O)NN=C1c1ccc(N2CCOCC2)cc1 [drawing 151] | – | – | – | – | – | – | EC50 (HEL; Homo sapiens, HEL, 48 h): 0.0387 µM; EC50 (COLO741 cells; [10]): 16.5 nM; EC50 (A549 cells; [11]): > 10000 nM
17 | C[C@@H]1CC(=O)NN=C1c1ccc(C2CCCCC2)cc1 [drawing 216] | 11.4 ± 0.3 | 29.6 ± 8.7 | 7.7 ± 1.3 | – | – | – | –
18 | C[C@@H]1CC(=O)NN=C1c1ccc(N2CCOCC2)c(F)c1 [drawing 217] | 3.1 ± 0.6 | 3.2 ± 1.1 | 1.6 ± 0.2 | – | – | – | –
19 | C[C@@H]1CC(=O)NN=C1c1ccc(N2CCOCC2)cc1 [drawing 218] | 20.2 ± 4.8 | 31.4 ± 10.8 | 13.1 ± 1.9 | – | – | – | –
20 | C[C@@H]1CC(=O)NN=C1c1ccc(-c2cncnc2)cc1 [drawing 219] | 19.8 ± 1.8 | 37.8 ± 12.3 | 12.7 ± 2.2 | – | – | – | –
21 | C[C@@H]1CC(=O)NN=C1c1ccc(F)c(F)c1 [drawing 220] | 33.2 ± 14.1 | 47.7 ± 14.1 | 22.3 ± 4.5 | – | – | – | –
22 | CC(=O)Nc1ccc(C2=NNC(=O)C[C@H]2C)cc1[N+](=O)[O-] [drawing 221] | 7.8 ± 0.3 | 12.3 ± 3.4 | 4.9 ± 1.1 | – | – | – | –
